Reference: US12251465B2, “Dosage form comprising structured solid-solution framework of sparingly-soluble drug and method for manufacture thereof” (priority 2018, dated 2025)
≈ marks a conversion by molar mass, not a printed value.

Assay: Solubility of drug in the dissolution fluid and excipient-fluid solutions (UV absorption)
Format: physicochemical
Settings: 37° C.
Method: For determining the solubility of drug in the dissolution fluid, 1 mg ibuprofen particles were put in a UV cuvette. The cuvette was then filled with 2.5 ml of the dissolution fluid (0.1 M HCl in deionized water at 37° C.). The concentration of dissolved drug was monitored by UV absorption using a Perkin Elmer Lambda 1050 Spectrophotometer. Between measurements, the cuvette was flipped at a frequency of 0.5 Hz to stir the solution. The temperature of the solution in the cuvette was maintained at 37° C., during the experiment. When the drug concentration in the solution reached its equilibrium value the drug solubility was recorded.
The solubility of drug in excipient-dissolution fluid solutions was determined by immersing 1.5 mg of the ibuprofen particles and different amounts (1.5-200 mg) of excipient in 2.5 ml dissolution fluid. The excipient was either HPMC or a mixture of 67 wt % HPMC and 33 wt % polyoxyl stearate. The dissolution fluid was 0.1 M HCl in deionized water.

[1] = 1 mg ibuprofen particles in 2.5 ml stirred dissolution fluid

concentration of dissolved drug at 3000 minutes (50 h) [1]: 40000 ng/mL | time to reach the solubility c0 [1]: ≤ 15,000 minutes | solubility (dissolution fluid (0.1 M HCl in deionized water), simulated gastric fluid, thermodynamic from solid, 0.1 M HCl in deionized water, no excipient, read-out: solubility of ibuprofen in the dissolution fluid, c0): ~50 µg/mL (≈ 242 µM)
Compound: CC(C)Cc1ccc(C(C)C(=O)O)cc1 (stereo not drawn) [ibuprofen]
